We go through twelve compounds from patent US4285942A, “Cyclododecanone oximes” (Egyt Gyogyszervegyeszeti Gyar, priority 1978, dated 1981).

For one data set, the system named is nicotine-lethality. In words: Nicotine-lethality inhibiting effect in mice, oral (method of Stone). In kind it is in vivo. Conditions: Mus musculus, nicotine-lethality inhibition, mice, groups of ten animals. The procedure: (§1) The nicotine-lethality inhibiting effect was determined on mice by the method of Stone [C. A. Stone et al.: Arch. Intern.
Experiment in data set [1]: as above
Conditions: mouse, in vivo, LD50 and ED50 in mice, read-out: Therapeutic index. In kind it is in vivo. The procedure:
as §1

The next data set is described as follows: in vivo. Conditions: mouse, mice, oral.
Another data set deals with isolated rat ileum. In words: Spasmolytic effect on smooth muscle, isolated rat ileum (method of Brock), papaverine as reference. Conditions: relative to papaverine. As to the method: The spasmolytic effect on smooth muscle was determined on isolated rat ileum according to the method of Brock et al. [H. Brock, J. Ceks, D. Lorenz: Arch. Exper. Path. u. Pharmacol. 215, 492/1952/] by using papaverine as the reference substance. In order to characterize the efficiency of the individual compounds their relative effect with respect to papaverine are enumerated in Table 2 below.

Data set [2] concerns ischiadic nerve (N. ischiadieus). In words: Local anaesthetizing effect on the ischiadic nerve of rats (method of Truant), Lidocaine as reference. In kind it is in vivo. Conditions: for Relative efficiency: local anaesthesia, relative to Lidocaine. As to the method: The local anaesthetizing effect was investigated on the ischiadic nerve (N. ischiadieus) of rats by the method of Truant [A. P. Truant, d'Amato cited in A. P. Truant, S. Wiedling: Acta Chirurg. Scand. 116, 351 (1958)], by using Lidocaine as the reference substance. The number of animals showing the characteristic motoric paralysis and the duration of the effect were recorded. The relative efficiency with respect to Lidocaine and the duration of the effect observed on applying a 0.25% and 0.5% concentration are presented in Table 3.

What is called ED50 is the dose that gives a 50% effect, or the effect in half of the subjects. A higher ED50 goes with weaker potency. In general, LD50 refers to the dose expected to kill half of the subjects tested. Higher therefore signals lower toxicity. Regarding `CC(CON=C1CCCCCCCCCCC1)CN(C)C` (racemic) [Example 4, D,L-1-(3'-Dimethylamino-2'-methylpropoxyimino)cyclododecane], the ED50 in the data set with nicotine-lethality was found to be 46 mg/kg. The selectivity ratio in data set [1] stood at 14.8. The same compound displayed an LD50 in the data set “in vivo” of 680 mg/kg. The values for the Relative efficiency (in the data set with isolated rat ileum; in data set [2]) were 4.1 and 0.63, respectively. The Duration of effect in data set [2] (0.25% concentration) stood at 32 min; in data set [2] (0.5% concentration) it was 105 min.
As for `OC(CCN1CCCCC1)(c1ccccc1)C1CCCCC1` (stereo not shown) [Artane, 1-cyclohexyl-1-phenyl-3-piperidino-propane-1-ol, reference compound], the ED50 in the data set with nicotine-lethality came out at 40 mg/kg.
As to `CN(C)CCCON=C1CCCCCCCCCCC1` [Example 1, 1-(Dimethylamino-propoxyimino)cyclododecane], in the data set on nicotine-lethality, the 50% effect level (ED50) was put at a dose of 39 mg/kg. Further, the selectivity ratio in data set [1] is 14.4. In the data set “in vivo”, the LD50 amounted to 560 mg/kg. In addition, the Relative efficiency in the data set on isolated rat ileum turned out to be 1.4; in data set [2], 0.77. The Duration of effect came out at 45 min in data set [2] (0.25% concentration) and 95 min in data set [2] (0.5% concentration).
`CN(C)CCON=C1CCCCCCCCCCC1` [Example 2, 1-(Dimethylamino-ethoxyimino)cyclododecane] had an ED50 with nicotine-lethality of 28 mg/kg. Besides, the selectivity ratio in data set [1] is 27.9. This compound yielded an LD50 in the data set “in vivo” of 780 mg/kg. For the same compound, the Duration of effect in data set [2] (0.25% concentration) amounted to 23 min; in data set [2] (0.5% concentration), 57 min. In data set [2], this compound had a Relative efficiency of 0.67.
`CC(C)N(CCON=C1CCCCCCCCCCC1)C(C)C` [Example 5, 1-(Diisopropylamino-ethoxyimino)cyclododecane] had an ED50 with nicotine-lethality of 10 mg/kg. In addition, the selectivity ratio in data set [1] amounted to 80. In “in vivo”, this compound showed an LD50 of 800 mg/kg. The Duration of effect in data set [2] (0.25% concentration) is 31 min; in data set [2] (0.5% concentration), 60 min. This compound gave a Relative efficiency in data set [2] of 0.71.
In the data set on nicotine-lethality, `c1ccc(CN2CCN(CCCON=C3CCCCCCCCCCC3)CC2)cc1` [Example 6, 1-(N-Benzylpiperazinyl-propoxyimino)cyclododecane] showed an ED50 of 180 mg/kg. In data set [1], the selectivity ratio amounted to 5. The compound also came in with an LD50 in the data set “in vivo” of 900 mg/kg. Besides, the values for the Relative efficiency (with isolated rat ileum; in data set [2]) were 0.9 and 0.52, respectively. The results for the Duration of effect in data set [2] (0.25% concentration) and in data set [2] (0.5% concentration) were 60 min and 134 min, respectively.
In the case of `CN1CCN(CCCON=C2CCCCCCCCCCC2)CC1` [Example 7, 1-(N-methylpiperazinyl-propoxyimino)cyclododecane], in the data set with nicotine-lethality, it took a dose of 68 mg/kg to reach the 50% effect level (ED50). Also, the selectivity ratio in data set [1] was determined as 16.2. In “in vivo”, this compound registered an LD50 of 1100 mg/kg.
In the case of `CCN(CC)CCCON=C1CCCCCCCCCCC1` [Example 10, 1-(Diethylamino-propoxyimino)cyclododecane], the results for the Relative efficiency (in the data set on isolated rat ileum; in data set [2]) were 2.9 and 2.00, respectively. Moreover, the results for the Duration of effect in data set [2] (0.25% concentration) and in data set [2] (0.5% concentration) were 76 min and 104 min, respectively.
Compound `CCN(CC)CC(C)CON=C1CCCCCCCCCCC1` (stereo not shown) [Example 11, 1-(3'-Diethylamino-2'-methyl-propoxyimino)cyclododecane] displayed an ED50 with nicotine-lethality of 80 mg/kg. The selectivity ratio in data set [1] turned out to be 5. In the data set “in vivo”, the LD50 came out at 400 mg/kg. Also, the values for the Relative efficiency (in the data set on isolated rat ileum; in data set [2]) were 2.6 and 1.86, respectively. In addition, the Duration of effect in data set [2] (0.25% concentration) came to 151 min; in data set [2] (0.5% concentration), 240 min.
In turn, `CC(C)N(CCCON=C1CCCCCCCCCCC1)C(C)C` [Example 12, 1-(Diisopropylamino-propoxyimino)cyclododecane] had an ED50 with nicotine-lethality of 130 mg/kg. Also, the selectivity ratio in data set [1] was determined as 5. Further, the LD50 in the data set “in vivo” amounted to 650 mg/kg. Further, the Duration of effect amounted to 77 min in data set [2] (0.25% concentration) and 240 min in data set [2] (0.5% concentration). The same compound returned a Relative efficiency in data set [2] of 1.68.
In the case of `CCN(CC)CC(=O)Nc1c(C)cccc1C` [Lidocaine, reference compound], the Duration of effect in data set [2] (0.25% concentration) amounted to 24 min; in data set [2] (0.5% concentration), 28 min. In addition, the Relative efficiency in data set [2] was determined as 1.0.
Regarding `COc1ccc(Cc2nccc3cc(OC)c(OC)cc23)cc1OC` [Papaverine, reference compound], the Relative efficiency in the data set with isolated rat ileum is reported as 1.0.
